Laboratory results taken from paper PMC12388523, “Flavonoids and Sesquiterpene Lactones from Lychnophora ericoides (Arnica-Do-Cerrado) and Their In Vitro Effects on Multiple Myeloma and Acute Myeloid Leukemia” (Metabolites, 2025).

Key:
HS-5 cells [1] = system: HS-5 cells; set-up: method as in PMID 36768497; conditions: cited from earlier work
HS-5 cells [2] = experiment: Proliferation, [3H]-thymidine uptake, non-malignant HS-5; format: cell-based; conditions: HS5; HS-5 (non-malignant), 72 h, 95% confidence interval in brackets; read-out: IC50 inhibition of proliferation
Method: (§1) Acute myeloid leukemia cell line HL-60 and multiple myeloma cell lines AMO-1 and KMS-12-PE were obtained from the German Collection of Microorganisms and Cell Cultures (DSMZ), Braunschweig, Germany, and non-tumorigenic stromal cell line HS-5 was acquired from the American Type Culture Collection (ATCC, Manassas, VA, USA). All cell lines were cultured in RPMI 1640 medium without phenol red (Pan Biotech, Aidenbach, Germany), supplemented with 2 mM glutamine, 100 U/mL penicillin, 100 µg/mL streptomycin (Sigma-Aldrich, St. Louis, MO, USA), and 10% fetal bovine serum (FBS Maximus, Catus Biotech GmbH, Tutzing, Germany) at 37 °C in a humidified atmosphere of 5% CO2/95% air. Cells were fed twice weekly. Logarithmically growing cells were resuspended at 1 × 10^5 cells/mL, plated in triplicate in round-bottom 96-well plates (100 µL per well; Falcon, Becton Dickinson, Franklin Lakes, NJ, USA), and incubated at 37 °C in 5% CO2/95% air for 2 h. […] Cell proliferation was assessed by [^3H]-thymidine uptake. […] Cells were harvested using a semi-automated device, and [^3H]-thymidine incorporation (expressed in counts per minute, cpm) was measured with a scintillation counter (MicroBeta TriLux, PerkinElmer, Waltham, MA, USA). Metabolic activity was assessed by resazurin staining. […] Relative fluorescence units (RFUs) were measured using a Synergy H1 plate reader equipped with a 560 nm excitation/590 nm emission filter set (BioTek; Agilent, Santa Clara, CA, USA). Proliferation and metabolic activity in the absence of compounds were defined as 100% (control), and the values for compound-treated samples were expressed as percentages relative to the control. Selectivity indices were calculated by dividing the IC50 value of each compound against HS-5 cells through the IC50 values against the investigated cell lines.
(§2) The Wilcoxon Rank Sum Test was used to analyze proliferation and metabolic activity in the absence and presence of varying compound concentrations (NCSS 2007 software, version 07.1.2, Kaysville, UT, USA). […] IC50 values were calculated using GraphPad Prism 10.1.2. […]

KB cell line = system: KB cell line; set-up: method as in PMID 17089326; conditions: cited from earlier work
MOLM-13 cells [3] = experiment: Metabolic activity, resazurin staining, MOLM-13; format: cell-based; conditions: for IC50: Homo sapiens, MOLM-13, 72 h, resazurin, 95% confidence interval in brackets, read-out: IC50 inhibition of metabolic activity; for Selectivity index (metabolic activity): IC50 HS-5 / IC50 MOLM-13
Method: [The source words this procedure for another cell line and reports this cell line under the same test.] (§3) Acute myeloid leukemia cell line HL-60 and multiple myeloma cell lines AMO-1 and KMS-12-PE were obtained from the German Collection of Microorganisms and Cell Cultures (DSMZ), Braunschweig, Germany, and non-tumorigenic stromal cell line HS-5 was acquired from the American Type Culture Collection (ATCC, Manassas, VA, USA). All cell lines were cultured in RPMI 1640 medium without phenol red (Pan Biotech, Aidenbach, Germany), supplemented with 2 mM glutamine, 100 U/mL penicillin, 100 µg/mL streptomycin (Sigma-Aldrich, St. Louis, MO, USA), and 10% fetal bovine serum (FBS Maximus, Catus Biotech GmbH, Tutzing, Germany) at 37 °C in a humidified atmosphere of 5% CO2/95% air. Cells were fed twice weekly. Logarithmically growing cells were resuspended at 1 × 10^5 cells/mL, plated in triplicate in round-bottom 96-well plates (100 µL per well; Falcon, Becton Dickinson, Franklin Lakes, NJ, USA), and incubated at 37 °C in 5% CO2/95% air for 2 h. Subsequently, the compounds were adjusted in the cell culture medium to reach the final concentrations in a total volume of 150 µL and incubated for an additional 72 h. Cell proliferation was assessed by [^3H]-thymidine uptake. Each well was exposed to 2 µCi [^3H]-thymidine (Hartmann Analytic, Braunschweig, Germany) during the final 12–16 h of incubation. Cells were harvested using a semi-automated device, and [^3H]-thymidine incorporation (expressed in counts per minute, cpm) was measured with a scintillation counter (MicroBeta TriLux, PerkinElmer, Waltham, MA, USA). Metabolic activity was assessed by resazurin staining. Resazurin (Carl Roth, Karlsruhe, Germany) was dissolved in distilled water at a concentration of 0.1 mg/mL, and 15 µL of this solution was added to each well, followed by a 2 h incubation at 37 °C. Relative fluorescence units (RFUs) were measured using a Synergy H1 plate reader equipped with a 560 nm excitation/590 nm emission filter set (BioTek; Agilent, Santa Clara, CA, USA). Proliferation and metabolic activity in the absence of compounds were defined as 100% (control), and the values for compound-treated samples were expressed as percentages relative to the control. Selectivity indices were calculated by dividing the IC50 value of each compound against HS-5 cells through the IC50 values against the investigated cell lines.
(§4) The Wilcoxon Rank Sum Test was used to analyze proliferation and metabolic activity in the absence and presence of varying compound concentrations (NCSS 2007 software, version 07.1.2, Kaysville, UT, USA). A p-value < 0.05 was considered statistically significant. IC50 values were calculated using GraphPad Prism 10.1.2. This software reports 95% confidence intervals instead of standard errors. […] Nonetheless, the figures clearly illustrate the IC50 values due to the narrow concentration range tested.
(§5) Proliferation inhibition often leads to cell death. Therefore, the cytotoxic activity of the compounds was further evaluated using a modified 3-(4,5-dimethylthiazol-2-yl)-2,5-diphenyltetrazolium bromide (MTT) assay, the resazurin (Alamar Blue) assay. Metabolically active cells reduce the non-fluorescent dye resazurin to the fluorescent dye resorufin via mitochondrial reductase activity, which correlates with cell viability. In the first step the metabolic activity of the four isolated flavonoids was investigated, showing a dose-dependent reduction, but to a much lower extent than in the proliferation assays (Table A2). In fact, only 7,3′,4′-trimethoxymyricetin (2) inhibited the metabolic activity of all four cell lines by more than 50% at a concentration of 100 µM.

HL-60 cells [4] = experiment: Metabolic activity, resazurin staining, HL-60; format: cell-based; conditions: for IC50: Homo sapiens, HL-60, 72 h, resazurin, 95% confidence interval in brackets, read-out: IC50 inhibition of metabolic activity; for Selectivity index (metabolic activity): IC50 HS-5 / IC50 HL-60
Method: as §3, §4, §5

KMS-12-PE cells [5] = experiment: Metabolic activity, resazurin staining, KMS-12-PE; format: cell-based; conditions: for IC50: Homo sapiens, KMS-12-PE, 72 h, resazurin, 95% confidence interval in brackets, read-out: IC50 inhibition of metabolic activity; for Selectivity index (metabolic activity): IC50 HS-5 / IC50 KMS-12-PE
Method: as §3, §4, §5

AMO-1 cells [6] = experiment: Metabolic activity, resazurin staining, AMO-1; format: cell-based; conditions: for IC50: Homo sapiens, AMO1, AMO-1, 72 h, resazurin, 95% confidence interval in brackets, read-out: IC50 inhibition of metabolic activity; for Selectivity index (metabolic activity): IC50 HS-5 / IC50 AMO-1
Method: as §3, §4, §5

BC cell line = system: BC cell line; set-up: method as in PMID 17089326; conditions: cited from earlier work
HL-60 cells [7] = experiment: Proliferation, [3H]-thymidine uptake, HL-60; format: cell-based; conditions: for IC50: Homo sapiens, HL-60, 72 h, 95% confidence interval in brackets, read-out: IC50 inhibition of proliferation
Method: as §3, §4

HS-5 cells [8] = experiment: Metabolic activity, resazurin staining, non-malignant HS-5; format: cell-based; conditions: HS5, HS-5 (non-malignant), 72 h, 95% confidence interval in brackets, read-out: IC50 inhibition of metabolic activity
Method: as §1, §2

MOLM-13 cells [9] = experiment: Proliferation, [3H]-thymidine uptake, MOLM-13; format: cell-based; conditions: for IC50: Homo sapiens, MOLM-13, 72 h, 95% confidence interval in brackets, read-out: IC50 inhibition of proliferation
Method: [The source words this procedure for another cell line and reports this cell line under the same test.] as §3, §4

KMS-12-PE cells [10] = experiment: Proliferation, [3H]-thymidine uptake, KMS-12-PE; format: cell-based; conditions: for IC50: KMS-12-PE, 72 h, 95% confidence interval in brackets, read-out: IC50 inhibition of proliferation; for Selectivity index (proliferation): IC50 HS-5 / IC50 KMS-12-PE
Method: as §3, §4

AMO-1 cells [11] = experiment: Proliferation, [3H]-thymidine uptake, AMO-1; format: cell-based; conditions: for IC50: AMO-1, 72 h, 95% confidence interval in brackets, read-out: IC50 inhibition of proliferation; for Selectivity index (proliferation): IC50 HS-5 / IC50 AMO-1
Method: as §3, §4

[12] = system: human colon cancer cell line HT-29; set-up: method as in PMID 22685350; conditions: cited from earlier work
NF-κB p65 = system: NF-κB p65; set-up: method as in PMID 22685350; conditions: read-out: concentration inhibiting NF-κB p65; cited from earlier work
KMS-12-PE = conditions: 10 nM; cited from earlier work
other MM cell lines = system: other MM cell lines; set-up: method as in PMID 20088798; conditions: cited from earlier work
KMS-12-BM = system: KMS-12-BM; set-up: method as in PMID 20088798; conditions: sister cell line of KMS-12-PE, read-out: IC50 inhibition of proliferation; cited from earlier work

Question: Which “concentration needed to inhibit HS-5 cells” value (HS-5 cells [1]) does the source give for `N.N.[Cl][Pt][Cl]` [Cisplatin] here?
Answer: The value was “above 1 µM”.

Question: With `C=C1C(=O)O[C@@H]2/C=C(/CO)C3=CC(=O)[C@@](C)(C[C@H](OC(=O)/C(C)=C\C)[C@@H]12)O3` [Compound 6, centratherin] as the compound, how does the IC50 (HS-5 cells [2]) read?
Answer: The IC50 was 2.5 µM.

Question: And the IC50 (KB cell line)?
Answer: The IC50 was < 0.3 µM.

Question: What about the IC50 (MOLM-13 cells [3]) of the same compound?
Answer: The IC50 was 1.3 µM.

Question: What about the “Selectivity index (metabolic activity)” value (MOLM-13 cells [3]) of the same compound?
Answer: Its value is 3.5.

Question: What about the IC50 (HL-60 cells [4]) of the same compound?
Answer: Its IC50 is 1.9 µM.

Question: What about the “Selectivity index (metabolic activity)” value (HL-60 cells [4]) of the same compound?
Answer: Its value is 2.4.

Question: What about the IC50 (KMS-12-PE cells [5]) of the same compound?
Answer: The IC50 was 2.7 µM.

Question: What about the “Selectivity index (metabolic activity)” value (KMS-12-PE cells [5]) of the same compound?
Answer: The value was 1.6.

Question: And the IC50 (AMO-1 cells [6])?
Answer: The IC50 was 2.4 µM.

Question: What about the “Selectivity index (metabolic activity)” value (AMO-1 cells [6]) of the same compound?
Answer: Its value is 1.9.

Question: And the IC50 (BC cell line)?
Answer: The IC50 was < 0.3 µM.

Question: What about the IC50 (HL-60 cells [7]) of the same compound?
Answer: The IC50 was 1.2 µM.

Question: And the “Selectivity index (proliferation)” value (HL-60 cells [7]; IC50 HS-5 / IC50 HL-60)?
Answer: The value was 2.1.

Question: And the IC50 (HS-5 cells [8])?
Answer: Its IC50 is 4.5 µM.

Question: What about the IC50 (MOLM-13 cells [9]) of the same compound?
Answer: The IC50 was 1.1 µM.

Question: What about the “Selectivity index (proliferation)” value (MOLM-13 cells [9]; IC50 HS-5 / IC50 MOLM-13) of the same compound?
Answer: Its value is 2.2.

Question: What about the IC50 (KMS-12-PE cells [10]; Homo sapiens) of the same compound?
Answer: Its IC50 is 2.2 µM.

Question: What about the “Selectivity index (proliferation)” value (KMS-12-PE cells [10]) of the same compound?
Answer: The value was 1.4.

Question: And the IC50 (KMS-12-PE cells [10])?
Answer: The IC50 was 1.8 µM.

Question: What about the IC50 (AMO-1 cells [11]; Homo sapiens, AMO1, 72 h) of the same compound?
Answer: The IC50 was 2.2 µM.

Question: And the “Selectivity index (proliferation)” value (AMO-1 cells [11])?
Answer: Its value is 1.1.

Question: Which results are given for `C=C1C(=O)O[C@@H]2/C=C(/C)C3=CC(=O)[C@@](C)(C[C@H](OC(=O)/C(C)=C\C)[C@@H]12)O3` [Compound 7, lychnopholide]?
Answer: IC50 (HS-5 cells [2]): 4.3 µM; IC50 [12]: 1.4 µM; IC50 (MOLM-13 cells [3]): 1.8 µM; Selectivity index (metabolic activity) (MOLM-13 cells [3]): 2.8; IC50 (HL-60 cells [4]): 2.9 µM; Selectivity index (metabolic activity) (HL-60 cells [4]): 1.7; IC50 (KMS-12-PE cells [5]): 4 µM; Selectivity index (metabolic activity) (KMS-12-PE cells [5]): 1.2; IC50 (NF-κB p65): 2.9 µM; IC50 (AMO-1 cells [6]): 3.4 µM; Selectivity index (metabolic activity) (AMO-1 cells [6]): 1.4; IC50 (HL-60 cells [7]): 1.3 µM; IC50 (HS-5 cells [8]): 4.9 µM; IC50 (MOLM-13 cells [9]): 1.4 µM; IC50 (KMS-12-PE cells [10]; Homo sapiens): 2.6 µM; Selectivity index (proliferation) (KMS-12-PE cells [10]): 1.7; IC50 (AMO-1 cells [11]): 2.2 µM; IC50 (AMO-1 cells [11]; Homo sapiens, AMO1, 72 h): 1.8 µM; Selectivity index (proliferation) (AMO-1 cells [11]): 2.0

Question: Which “proliferation inhibited to” value (KMS-12-PE) does the source give for `COc1cccc2c1C(=O)c1c(O)c3c(c(O)c1C2=O)C[C@@](O)(C(=O)CO)C[C@@H]3O[C@H]1C[C@H](N)[C@H](O)[C@H](C)O1` [doxorubicin] here?
Answer: Its value is 45.5%.

Question: For `Nc1cccc2c1CN(C1CCC(=O)NC1=O)C2=O` (centres unmarked) [lenalidomide], which “IC50 concentrations (in words)” value (other MM cell lines) is on record?
Answer: The value was “high µM range”.

Question: And the IC50 (KMS-12-BM)?
Answer: Its IC50 is 0.057 µM.
